Columns and labels:
human MOR = human MOR (Homo sapiens (Human), UniProt P35372)
mice = conditions: mouse, in vivo

| SMILES | G/βarr2 bias factor (human MOR) | constipation following acute administration (mice) |
| --- | --- | --- |
| COc1ccsc1CNCC[C@@]1(c2ccccn2)CCOC2(CCCC2)C1 [TRV-130] | 3.0 |  |
| CN1CC[C@]23c4c5ccc(O)c4O[C@H]2[C@@H](O)C=C[C@H]3[C@H]1C5 [morphine] |  | induced constipation |

— US10751335B2 (priority 2016, dated 2020)
